From paper PMC11944037, “Investigating the Mechanism of Action of Ipomoea pes-caprae in the Treatment of Rheumatoid Arthritis Based on Serum Metabolomics and Network Pharmacology” (Marine Drugs, 2025)

Test: Identification and relative content of absorbed components of IPE in plasma (UPLC-MS)
Format: in vivo, SD rats
Conditions: Con + IPE group (normal rats), oral IPE 13.5 g/kg; peak area normalization
Description: A total of 83 male SD rats, SPF grade, six weeks old, body mass (200 ± 10 g), were purchased from Hunan SJA Laboratory Animal Co., Ltd. (Haodan Science and Technology Park, No.99 Changchong Road, Longping High-tech Park, Furong District, Changsha City, China), Animal License No. SCXK (Hunan) 2019-0004. The animal experiments were approved by the Animal Ethics Committee of Guangxi University of Chinese Medicine (Approval No. DW20220220-117). After one week of adaptive feeding, the animals were randomly divided into eight groups of 10 animals according to weight stratification: normal control group (Con), natural bovine type II collagen model group (CII), wind-dampness cold bi-syndrome model group (WCM), wind-dampness heat bi-syndrome model group (WHM), wind-dampness cold bi-syndrome + Ipomoea pes-caprae group (WCM + IPE), wind-dampness heat bi-syndrome + Ipomoea pes-caprae group (WHM + IPE), wind-dampness cold bi-syndrome + Duhuo group (WCM + DH) (Duhuo formula granules), and wind-dampness heat bi-syndrome + Fangji group (WHM + FJ) (Fangji formula granules). Another three rats were randomly selected as the normal administration group (Con + IPE), and the absorbed components in plasma were studied in vivo. The oral dose of IPE was 13.5 g/kg, and the dosing volume was 20 mL/kg. The oral doses of Duhuo formula granules and Fangji formula granules were 9.0 g/kg, with a dosing volume of 20 mL/kg for each. The blank control group and each model group were administered an equal volume of distilled water by oral gavage. The administration was performed once daily for 28 consecutive days.
Rats were fasted for 12 h before administration but not deprived of water, then weighed and administered. A total of 0.2 mL of blood was collected from the orbit at 5 min, 30 min, 45 min, 1 h, 2 h, 4 h, 6 h, 8 h, and 12 h after the end of gavage administration and placed in a centrifuge tube with a preservative anticoagulant (1.5% EDTA aqueous solution, 1.5 mL). The samples were centrifuged at 4 °C for 10 min at 4000 rpm to separate the plasma. The supernatant was transferred to a new centrifuge tube and stored in a refrigerator at −80 °C for the detection of absorbed components in plasma and pharmacokinetics. In addition, after the end of the entire experimental cycle, blood was taken from the abdominal aorta of the rat. The blood samples were kept at room temperature for 2 h, then centrifuged at 4 °C at 3000 rpm for 10 min, and the upper serum was aspirated. The samples were stored at −80 °C in a low-temperature refrigerator for TNF-α, IL-6 detection, and metabolomics detection.
Ultra-high liquid chromatograph (model: ExionLC AC, manufacturer: SCIEX Corporation, USA) and QTOF mass spectrometer (model: X500R, manufacturer: SCIEX Corporation, USA), Waters ACQUITY UPLC HSS T3 C18 column (1.8 μm, 2.1 × 100 mm) was used as the mobile phase for the separation of 0.1% formic acid aqueous solution (A)-acetonitrile (B) as a mobile phase, gradient elution (0~30 min, 5%~95% B); volume flow rate of 0.4 mL/min; injection volume: 3 μL, column temperature: 40 °C. Ion source: dual-spray TurboV, positive and negative ion scanning, TOF MS scanning range of m/z 100~1500, positive/negative ion source voltage of […], ion source temperature: 600 °C, GS1: 55 psi, GS2: 55 psi, air curtain gas pressure: 35 psi, parent ion collision energy: ±10 V, de-cluster voltage (DP): ±80 V, daughter ion collision energy (CE): ±35 V.
Expressed as mean ± standard deviation ( x¯ ± s) and processed by GraphPad Prism 8.4.3 statistical software, statistical comparisons were evaluated by one-way ANOVA, followed by the Student–Newman–Keuls post hoc test. The difference was statistically significant with p < 0.05 and p < 0.01. […]

SMILES | Relative Content of absorbed component in plasma
COc1cc2oc(=O)ccc2cc1O [Isoscopoletin] | 2.7%
O=C(O)c1ccc(O)cc1 [p-Hydroxybenzoic acid] | 38.2%
COC(=O)/C=C/c1ccc(O)c(O)c1 [Methyl caffeate acid] | 1.57%

Same assay, conditions: WCM + IPE group, oral IPE 13.5 g/kg; peak area normalization

SMILES | Relative Content of absorbed component in plasma
COc1cc2oc(=O)ccc2cc1O [Isoscopoletin] | 7.8%
O=Cc1ccc(O)c(O)c1 [Protocatechuic aldehyde] | 1.68%
O=c1ccc2ccccc2o1 [Coumarin] | 1.77%
O=C(O)c1ccc(O)cc1 [p-Hydroxybenzoic acid] | 29.65%
COC(=O)/C=C/c1ccc(O)c(O)c1 [Methyl caffeate acid] | 2.45%

Same assay, conditions: WHM + IPE group, oral IPE 13.5 g/kg; peak area normalization

SMILES | Relative Content of absorbed component in plasma
COc1cc2oc(=O)ccc2cc1O [Isoscopoletin] | 5%
O=C(O)c1ccc(O)cc1 [p-Hydroxybenzoic acid] | 34.04%
COC(=O)/C=C/c1ccc(O)c(O)c1 [Methyl caffeate acid] | 2.02%
